Data as given in patent US20200000976A1, “A MEDICAL IMPLANT AND A METHOD OF COATING A MEDICAL IMPLANT” (priority 2016, published 2020).

How the values were obtained:
[1] = binding and release of antimicrobial silver on Ti, PCL and PEEK (previous in house work); assay type: physicochemical
[2] = Palacos cement; cited from earlier work
[3] = Palacos cement; cited from earlier work; remark: listed apart in the source
[4] = test system: osteoblasts derived from trabecular bone; conditions: cited from earlier work

Compound | effects at high concentrations [2] | elution from cement at low doses [3] | low levels with no or little effect on the replication of osteoblasts [4] | also measured
[Ag] [antimicrobial silver, silver] | – | – | – | time of release above MIC [1]: 40 days; released level (above MIC) ([1]; for 40 days): above 1 ug/mL
teicoplanin | local cytotoxic effects | very little elution occurs | – | –
CN[C@H](CC(C)C)C(=O)N[C@H]1C(=O)N[C@@H](CC(N)=O)C(=O)N[C@H]2C(=O)N[C@H]3C(=O)N[C@H](C(=O)N[C@H](C(=O)O)c4cc(O)cc(O)c4-c4cc3ccc4O)[C@H](O)c3ccc(c(Cl)c3)Oc3cc2cc(c3O[C@@H]2O[C@H](CO)[C@@H](O)[C@H](O)[C@H]2O[C@H]2C[C@](C)(N)[C@H](O)[C@H](C)O2)Oc2ccc(cc2Cl)[C@H]1O [vancomycin] | – | – | < 1 µg/mL | high concentrations at which cell death of osteoblasts occurs [4]: 10,000 /mL
gentamicin | local cytotoxic effects | very little elution occurs | – | levels impeding 3H-thymidine levels [4]: > 100 mL⁻¹
NC[C@H]1O[C@H](O[C@H]2[C@H](O)[C@@H](O[C@H]3O[C@H](CO)[C@@H](O)[C@H](N)[C@H]3O)[C@H](N)C[C@@H]2N)[C@H](N)C[C@@H]1O [Tobramycin, tobramycin] | – | – | < 200 µg/mL | higher concentrations at which replication decreases and eventually cell death occurs [4]: > 400 µg/mL
